Test [1] concerns the target T1, ATP-dependent translocase ABCB1 (Homo sapiens, UniProt P08183). Kind of test: TP_TRANSPORTER: inhibition of Digoxin transepithelial transport (basal to apical) (Digoxin: 5 uM) in Caco-2 cells. Format: functional, cell-based. On the technique in general: Passage across Caco-2 layers is used to estimate intestinal permeability.
In test [2] the target is T1, ATP-dependent translocase ABCB1. The test can be described thus: TP_TRANSPORTER: inhibition of Cyclosporin A transepithelial transport (basal to apical) (Cyclosporin A: 1 uM) in Caco-2 cells. In kind it is functional, cell-based.

For orientation: IC50 means the midpoint of a concentration-inhibition curve.

T1 sequence (P08183 whole entry): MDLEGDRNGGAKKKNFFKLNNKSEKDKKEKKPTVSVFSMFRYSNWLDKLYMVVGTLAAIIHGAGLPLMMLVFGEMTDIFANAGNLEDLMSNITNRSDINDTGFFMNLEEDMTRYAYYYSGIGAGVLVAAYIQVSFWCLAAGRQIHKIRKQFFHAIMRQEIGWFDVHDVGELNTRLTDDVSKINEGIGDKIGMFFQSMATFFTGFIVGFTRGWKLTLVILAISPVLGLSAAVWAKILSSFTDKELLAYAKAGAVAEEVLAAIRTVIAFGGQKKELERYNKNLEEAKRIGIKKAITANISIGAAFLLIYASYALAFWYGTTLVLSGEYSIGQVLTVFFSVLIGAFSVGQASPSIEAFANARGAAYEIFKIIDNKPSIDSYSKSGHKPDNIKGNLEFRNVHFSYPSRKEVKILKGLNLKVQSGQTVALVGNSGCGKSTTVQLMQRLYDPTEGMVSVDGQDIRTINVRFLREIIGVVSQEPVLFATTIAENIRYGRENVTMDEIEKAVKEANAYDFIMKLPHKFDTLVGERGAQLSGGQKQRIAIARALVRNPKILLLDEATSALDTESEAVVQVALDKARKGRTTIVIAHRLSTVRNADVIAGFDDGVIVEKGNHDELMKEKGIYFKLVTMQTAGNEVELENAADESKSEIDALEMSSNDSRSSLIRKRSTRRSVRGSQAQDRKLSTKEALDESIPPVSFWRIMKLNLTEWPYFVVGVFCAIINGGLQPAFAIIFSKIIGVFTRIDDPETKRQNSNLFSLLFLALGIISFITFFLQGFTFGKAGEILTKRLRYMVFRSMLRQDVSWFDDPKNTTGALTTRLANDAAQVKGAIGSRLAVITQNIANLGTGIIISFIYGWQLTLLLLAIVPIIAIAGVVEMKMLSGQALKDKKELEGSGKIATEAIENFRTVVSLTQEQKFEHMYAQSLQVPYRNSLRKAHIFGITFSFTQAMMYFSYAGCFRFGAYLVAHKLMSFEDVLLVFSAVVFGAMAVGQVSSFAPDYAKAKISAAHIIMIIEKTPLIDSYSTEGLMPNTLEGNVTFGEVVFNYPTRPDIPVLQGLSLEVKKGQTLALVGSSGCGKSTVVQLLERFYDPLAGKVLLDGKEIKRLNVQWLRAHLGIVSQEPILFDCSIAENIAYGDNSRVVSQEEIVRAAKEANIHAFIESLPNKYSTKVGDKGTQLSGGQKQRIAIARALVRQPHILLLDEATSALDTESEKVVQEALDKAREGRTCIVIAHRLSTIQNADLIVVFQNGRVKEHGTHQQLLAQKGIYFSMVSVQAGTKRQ

In the case of `O=C(/C=C/C=C/c1ccc2c(c1)OCO2)N1CCCCC1` [PIPERINE], the IC50 in test [1] came to 15.5 µM; in test [2], 74.1 µM.

The record behind these values is ChEMBL document CHEMBL2073998, “Piperine, a major constituent of black pepper, inhibits human P-glycoprotein and CYP3A4” (J Pharmacol Exp Ther, 2002).
